According to patent publication US20090304692A1, “TRIAZINE COMPOUNDS AS PI3 KINASE AND MTOR INHIBITORS” (Wyeth, priority 2008, published 2009):
“And” between values parts separate entries of the source, which are not always exact repeats. Equal entries are not always repeated. Where two headings read alike, the source gives them in different places.

Tests used:
PI3K-γ = PI3K-γ (Homo sapiens, UniProt P48736); assay: PI3K-gamma fluorescence polarization assay; conditions: read-out: IC50 PI3Kγ
PI3K-α = PI3K-α (Homo sapiens, UniProt P42336); assay: PI3K-alpha fluorescence polarization assay; conditions: read-out: IC50 PI3Kα
[1] = test system: human breast MDA-MB-361 tumor cell line; assay: In vitro cell culture growth assay (MTS), MDA-MB-361; format: cell-based; conditions: Homo sapiens, three days after drug treatment, read-out: IC50 MDA-MB-361
[2] = test system: human prostate PC3-mm2 tumor cell line; assay: In vitro cell culture growth assay (MTS), PC3-mm2; format: cell-based; conditions: Homo sapiens, PC3MM2, 72 h, three days after drug treatment, read-out: IC50 PC3-mm2
Human mTOR (FLAG-TOR) = Human mTOR (FLAG-TOR) (Homo sapiens, UniProt P42345); assay: mTOR kinase assay (DELFIA format, purified enzyme); format: biochemical; conditions: read-out: IC50 mTOR
[3] = MDA-MB-361, 72 h, MTS cell growth assay
[4] = MDA-MB-361, 72 h, MTS cell growth assay, MDA-MB-361 cells
[5] = MTS cell growth assay, PC3-mm2 cells
[6] = 72 h, MTS cell growth assay, MDA-MB-361 cells

PI3K-α, sequence (P42336 whole entry, species assumed): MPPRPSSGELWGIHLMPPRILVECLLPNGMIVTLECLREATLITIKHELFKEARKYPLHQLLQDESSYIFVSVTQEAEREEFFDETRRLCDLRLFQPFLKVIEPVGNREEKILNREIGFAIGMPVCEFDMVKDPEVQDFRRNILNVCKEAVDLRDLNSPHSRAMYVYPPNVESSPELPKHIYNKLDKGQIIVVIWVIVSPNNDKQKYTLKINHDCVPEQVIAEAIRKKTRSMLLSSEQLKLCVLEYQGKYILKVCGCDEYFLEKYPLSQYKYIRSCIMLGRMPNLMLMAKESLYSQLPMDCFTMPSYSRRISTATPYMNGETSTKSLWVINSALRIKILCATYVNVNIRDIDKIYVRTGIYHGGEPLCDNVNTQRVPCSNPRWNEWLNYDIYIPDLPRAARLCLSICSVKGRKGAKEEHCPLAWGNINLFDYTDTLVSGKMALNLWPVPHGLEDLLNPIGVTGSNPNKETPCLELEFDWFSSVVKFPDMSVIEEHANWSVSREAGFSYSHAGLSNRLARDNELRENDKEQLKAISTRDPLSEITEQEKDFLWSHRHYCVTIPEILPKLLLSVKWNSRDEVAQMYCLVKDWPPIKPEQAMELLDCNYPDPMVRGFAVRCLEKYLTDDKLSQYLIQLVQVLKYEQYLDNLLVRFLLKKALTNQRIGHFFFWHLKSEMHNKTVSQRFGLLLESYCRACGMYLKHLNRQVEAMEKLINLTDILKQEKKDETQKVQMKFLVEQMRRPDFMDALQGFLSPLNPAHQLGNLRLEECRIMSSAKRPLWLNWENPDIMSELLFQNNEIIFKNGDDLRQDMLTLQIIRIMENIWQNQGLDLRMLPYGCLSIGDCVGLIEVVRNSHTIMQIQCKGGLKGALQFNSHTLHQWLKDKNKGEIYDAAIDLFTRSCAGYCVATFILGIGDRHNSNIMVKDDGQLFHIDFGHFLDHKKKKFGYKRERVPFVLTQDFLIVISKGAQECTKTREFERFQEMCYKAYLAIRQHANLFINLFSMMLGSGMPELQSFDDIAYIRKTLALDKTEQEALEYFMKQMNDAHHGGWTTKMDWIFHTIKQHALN
PI3K-α, sequence (P27986 whole entry partner, species assumed): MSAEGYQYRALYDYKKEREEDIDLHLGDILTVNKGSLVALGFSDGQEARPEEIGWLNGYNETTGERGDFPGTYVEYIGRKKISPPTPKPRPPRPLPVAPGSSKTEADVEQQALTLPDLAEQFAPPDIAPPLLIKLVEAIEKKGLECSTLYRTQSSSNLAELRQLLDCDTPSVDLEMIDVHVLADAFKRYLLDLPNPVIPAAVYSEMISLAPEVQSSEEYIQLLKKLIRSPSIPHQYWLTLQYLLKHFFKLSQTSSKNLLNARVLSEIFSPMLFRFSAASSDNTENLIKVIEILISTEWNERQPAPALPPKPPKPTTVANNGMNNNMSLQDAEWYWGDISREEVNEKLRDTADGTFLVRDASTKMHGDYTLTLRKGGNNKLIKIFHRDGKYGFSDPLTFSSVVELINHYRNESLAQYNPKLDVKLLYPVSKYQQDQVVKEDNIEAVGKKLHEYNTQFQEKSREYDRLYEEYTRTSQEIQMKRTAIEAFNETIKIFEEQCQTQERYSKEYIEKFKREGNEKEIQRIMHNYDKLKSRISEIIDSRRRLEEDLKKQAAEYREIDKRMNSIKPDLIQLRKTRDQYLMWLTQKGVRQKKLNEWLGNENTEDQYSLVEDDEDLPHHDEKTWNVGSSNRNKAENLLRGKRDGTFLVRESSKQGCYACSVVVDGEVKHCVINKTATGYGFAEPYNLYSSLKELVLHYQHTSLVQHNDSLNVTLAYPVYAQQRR
Human mTOR (FLAG-TOR), sequence (P42345 1360-2549 limits assumed): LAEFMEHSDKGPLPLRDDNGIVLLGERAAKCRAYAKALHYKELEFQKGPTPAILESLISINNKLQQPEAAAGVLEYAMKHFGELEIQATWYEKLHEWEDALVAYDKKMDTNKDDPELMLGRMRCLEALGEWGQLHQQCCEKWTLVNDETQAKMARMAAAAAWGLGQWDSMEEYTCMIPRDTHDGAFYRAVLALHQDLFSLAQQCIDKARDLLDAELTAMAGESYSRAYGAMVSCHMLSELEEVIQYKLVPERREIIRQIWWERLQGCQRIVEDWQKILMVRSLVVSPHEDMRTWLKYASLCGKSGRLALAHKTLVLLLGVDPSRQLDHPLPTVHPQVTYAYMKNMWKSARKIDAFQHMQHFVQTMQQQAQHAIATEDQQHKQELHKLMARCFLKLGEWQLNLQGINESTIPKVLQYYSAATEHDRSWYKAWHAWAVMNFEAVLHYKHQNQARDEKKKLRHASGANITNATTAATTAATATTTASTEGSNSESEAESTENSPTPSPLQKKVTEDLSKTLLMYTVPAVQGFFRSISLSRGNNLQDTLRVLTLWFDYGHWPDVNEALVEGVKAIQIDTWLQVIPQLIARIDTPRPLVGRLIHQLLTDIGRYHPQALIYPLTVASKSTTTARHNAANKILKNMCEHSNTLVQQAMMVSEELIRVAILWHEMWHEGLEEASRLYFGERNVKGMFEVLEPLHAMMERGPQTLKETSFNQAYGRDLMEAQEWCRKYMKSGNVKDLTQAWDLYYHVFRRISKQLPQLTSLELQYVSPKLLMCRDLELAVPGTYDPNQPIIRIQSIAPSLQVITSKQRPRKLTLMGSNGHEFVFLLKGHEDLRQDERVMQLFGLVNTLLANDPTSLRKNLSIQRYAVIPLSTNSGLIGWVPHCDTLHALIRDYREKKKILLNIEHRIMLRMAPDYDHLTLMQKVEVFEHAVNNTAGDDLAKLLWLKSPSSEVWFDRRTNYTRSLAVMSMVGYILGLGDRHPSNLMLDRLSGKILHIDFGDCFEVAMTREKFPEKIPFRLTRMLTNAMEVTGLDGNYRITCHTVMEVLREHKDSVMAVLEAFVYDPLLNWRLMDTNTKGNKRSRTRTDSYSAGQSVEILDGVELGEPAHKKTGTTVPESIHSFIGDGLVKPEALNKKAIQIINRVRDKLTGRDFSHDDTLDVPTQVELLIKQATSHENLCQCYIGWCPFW
PI3K-γ, sequence (P48736 whole entry, species assumed): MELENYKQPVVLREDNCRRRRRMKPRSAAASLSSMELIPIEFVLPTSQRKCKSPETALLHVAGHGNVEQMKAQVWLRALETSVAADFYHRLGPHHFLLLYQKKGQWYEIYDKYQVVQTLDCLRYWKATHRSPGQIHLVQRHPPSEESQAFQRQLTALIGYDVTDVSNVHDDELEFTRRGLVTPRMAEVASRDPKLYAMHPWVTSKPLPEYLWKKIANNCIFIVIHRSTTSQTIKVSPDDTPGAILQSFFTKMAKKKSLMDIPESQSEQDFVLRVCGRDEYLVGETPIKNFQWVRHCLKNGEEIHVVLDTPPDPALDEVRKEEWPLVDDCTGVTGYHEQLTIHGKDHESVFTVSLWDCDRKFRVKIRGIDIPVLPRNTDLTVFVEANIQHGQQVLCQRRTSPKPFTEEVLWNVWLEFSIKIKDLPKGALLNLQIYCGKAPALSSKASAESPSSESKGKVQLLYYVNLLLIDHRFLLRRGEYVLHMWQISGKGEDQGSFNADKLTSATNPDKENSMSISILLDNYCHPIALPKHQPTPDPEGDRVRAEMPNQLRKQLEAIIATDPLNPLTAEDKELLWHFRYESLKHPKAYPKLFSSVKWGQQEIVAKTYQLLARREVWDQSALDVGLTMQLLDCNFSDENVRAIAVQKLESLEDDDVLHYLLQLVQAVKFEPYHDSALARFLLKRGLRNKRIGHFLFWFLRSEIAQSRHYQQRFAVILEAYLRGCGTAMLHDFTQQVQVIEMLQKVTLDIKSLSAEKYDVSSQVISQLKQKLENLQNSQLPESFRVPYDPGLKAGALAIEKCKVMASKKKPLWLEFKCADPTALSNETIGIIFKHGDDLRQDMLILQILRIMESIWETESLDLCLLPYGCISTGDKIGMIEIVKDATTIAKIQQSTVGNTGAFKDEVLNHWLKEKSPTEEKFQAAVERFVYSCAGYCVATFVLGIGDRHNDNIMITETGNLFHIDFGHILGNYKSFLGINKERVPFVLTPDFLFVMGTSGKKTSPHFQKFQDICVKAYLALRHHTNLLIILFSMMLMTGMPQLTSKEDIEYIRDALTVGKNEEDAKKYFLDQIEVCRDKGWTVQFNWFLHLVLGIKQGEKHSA

| Structure (SMILES) | IC50 (PI3K-γ) [nM] | IC50 (PI3K-α) [nM] | IC50 [1, 3] [nM] | IC50 ([2]; MTS cell growth assay) [nM] | IC50 (Human mTOR (FLAG-TOR)) | IC50 [1, 4] [nM] | IC50 [2, 5] [nM] | IC50 ([1]; 72 h, MDA-MB-361 cells, MTS) [nM] | IC50 ([2]; PC3-mm2 cells, MTS) [nM] | IC50 ([1]; MDA-MB-361, 72 h, MDA-MB-361 cells, MTS) [nM] | IC50 [1, 6] [nM] | IC50 (PI3K-γ; listed as 709) [nM] |
| --- | --- | --- | --- | --- | --- | --- | --- | --- | --- | --- | --- | --- |
| CC(C)c1nc(-c2ccc(NC(=O)Nc3ccc(C(=O)O)cc3)cc2)nc(N2CCOCC2)n1 [Example 301, 4-[({4-[4-(1-methylethyl)-6-morpholin-4-yl-1,3,5-triazin-2-yl]phenyl}carbamoyl)amino]benzoic acid] | 58 | 21 | 430 | 759 | 0.8 nM | – | – | – | – | – | – | – |
| O=C(Nc1ccc(C(=O)O)cc1)Nc1ccc(-c2nc(C3=CCOCC3)nc(N3CCOCC3)n2)cc1 [Example 227, 4-[({4-[4-(3,6-dihydro-2H-pyran-4-yl)-6-morpholin-4-yl-1,3,5-triazin-2-yl]phenyl}carbamoyl)amino]benzoic acid] | 81 | 23 | 1500 | 4030 | 7.3 nM | – | – | – | – | – | – | – |
| CN1CCN(C(=O)c2ccc(NC(=O)Nc3ccc(-c4nc(N5CCOCC5)nc(N5C6COCC5COC6)n4)cc3)cc2)CC1 [Example 769, 1-{4-[4-(3,7-dioxa-9-azabicyclo[3.3.1]non-9-yl)-6-morpholin-4-yl-1,3,5-triazin-2-yl]phenyl}-3-{4-[(4-methylpiperazin-1-yl)carbonyl]phenyl}urea] | 17.5 | 2.1 | – | – | 0.23 nM | 6 | 14 | – | – | – | – | – |
| O=C(Nc1ccc(-c2nc(N3CCOCC3)nc(N3CCOCC3)n2)cc1)Nc1ccc(C(F)(F)F)cc1 [Example 53, 1-[4-(4,6-dimorpholin-4-yl-1,3,5-triazin-2-yl)phenyl]-3-[4-(trifluoromethyl)phenyl]urea] | 403 | 45 | 662 | 987 | 24 nM and 18 nM | – | – | – | – | – | – | – |
| CCCCc1nc(-c2ccc(NC(=O)Nc3ccc(C(=O)Nc4ccc(N5CCN(C)CC5)cc4)cc3)cc2)nc(N2CCOCC2)n1 [Example 253, 4-({[4-(4-butyl-6-morpholin-4-yl-1,3,5-triazin-2-yl)phenyl]carbamoyl}amino)-N-[4-(4-methylpiperazin-1-yl)phenyl]benzamide] | 267 | 8 | 12 | 574 | 9 nM | – | – | – | – | – | – | – |
| CC(O)c1ccc(NC(=O)Nc2ccc(-c3nc(N4CCOCC4)nc(N4C[C@H]5C[C@@H]4CN5C(=O)OC(C)(C)C)n3)cc2)cc1 (stereo partly drawn) [Example 302, tert-butyl-(1R,4R)-5-{4-[4-({[4-(1-hydroxyethyl)phenyl]carbamoyl}amino)phenyl]-6-morpholin-4-yl-1,3,5-triazin-2-yl}-2,5-diazabicyclo[2.2.1]heptane-2-carboxylate] | 263 | 35 | 299 | 539 | 36 nM | – | – | – | – | – | – | – |
| O=C(Nc1ccc(C(=O)NCCN2CCCC2)cc1)Nc1ccc(-c2nc(N3CCOCC3)nc(N3C4CCCC3COC4)n2)cc1 [Example 798, 4-[({4-[4-morpholin-4-yl-6-(3-oxa-9-azabicyclo[3.3.1]non-9-yl)-1,3,5-triazin-2-yl]phenyl}carbamoyl)amino]-N-(2-pyrrolidin-1-ylethyl)benzamide] | 43.5 | 4.1 | – | – | 0.445 nM | – | – | 3 | 24 | – | – | – |
| O=C(Nc1ccc(C(=O)N2CCSCC2)cc1)Nc1ccc(-c2nc(N3CCOCC3)nc(N3C4CCC3COC4)n2)cc1 [Example 762, 1-{4-[4-morpholin-4-yl-6-(3-oxa-8-azabicyclo[3.2.1]oct-8-yl)-1,3,5-triazin-2-yl]phenyl}-3-[4-(thiomorpholin-4-ylcarbonyl)phenyl]urea] | 19.7 | 2.7 | – | – | 0.428 nM | 8 | 7 | – | – | – | – | – |
| O=C(Nc1ccc(C(=O)N2CCC(N3CCOCC3)CC2)cc1)Nc1ccc(-c2nc(N3CCOCC3)nc(N3C4CCC3COC4)n2)cc1 [Example 757, 1-{4-[4-morpholin-4-yl-6-(3-oxa-8-azabicyclo[3.2.1]oct-8-yl)-1,3,5-triazin-2-yl]phenyl}-3-{4-[(4-morpholin-4-ylpiperidin-1-yl)carbonyl]phenyl}urea] | 37.5 | 5.5 | – | – | 0.28 nM | < 3 | 6 | – | – | – | – | – |
| Cc1nc(-c2ccc(NC(=O)Nc3ccc(C(=O)N4CCN(C)CC4)cc3)cc2)nc(N2CCOCC2)n1 [Example 166, 1-[4-(4-methyl-6-morpholin-4-yl-1,3,5-triazin-2-yl)phenyl]-3-{4-[(4-methylpiperazin-1-yl)carbonyl]phenyl}urea] | 33 | 4 | 134 | 249 | 60 nM | – | – | – | – | – | – | – |
| CC(C)c1nc(-c2ccc(NC(=O)Nc3ccc(C(=O)Nc4cccnc4)cc3)cc2)nc(N2CCOCC2)n1 [Example 310, 4-[({4-[4-(1-methylethyl)-6-morpholin-4-yl-1,3,5-triazin-2-yl]phenyl}carbamoyl)amino]-N-pyridin-3-ylbenzamide] | 82 | 14 | 44 | 117 | 5.9 nM | – | – | – | – | – | – | – |
| CN1CCN(C(=O)c2ccc(NC(=O)Nc3ccc(-c4nc(N5CCOCC5)nc(N5CC6CCC5CO6)n4)cc3)cc2)CC1 (stereo not drawn) [Example 813, 1-{4-[(4-methylpiperazin-1-yl)carbonyl]phenyl}-3-{4-[4-morpholin-4-yl-6-(2-oxa-5-azabicyclo[2.2.2]oct-5-yl)-1,3,5-triazin-2-yl]phenyl}urea] | 30 | 3.1 | – | – | 1.9 nM | – | – | – | 24 | < 3.2 | – | – |
| CC(=O)c1nc(-c2ccc(NC(=O)Nc3ccncc3)cc2)nc(N2CCOCC2)n1 [Example 209, 1-[4-(4-acetyl-6-morpholin-4-yl-1,3,5-triazin-2-yl)phenyl]-3-pyridin-4-ylurea] | 99 | 24 | 174 | 278 | 9 nM | – | – | – | – | – | – | – |
| O=C(Nc1ccc(C(=O)NCCN2CCCC2)cc1)Nc1ccc(-c2nc(N3CCOCC3)nc(N3C4COCC3COC4)n2)cc1 [Example 774, 4-[({4-[4-(3,7-dioxa-9-azabicyclo[3.3.1]non-9-yl)-6-morpholin-4-yl-1,3,5-triazin-2-yl]phenyl}carbamoyl)amino]-N-(2-pyrrolidin-1-ylethyl)benzamide] | 41.5 | 2 | – | – | 0.23 nM | – | 19 | – | – | – | 14 | – |
| O=C(Nc1ccc(C(=O)N2CCN(C3CCCC3)CC2)cc1)Nc1ccc(-c2nc(N3CCOCC3)nc(N3C4CCC3COC4)n2)cc1 [Example 755, 1-{4-[(4-cyclopentylpiperazin-1-yl)carbonyl]phenyl}-3-{4-[4-morpholin-4-yl-6-(3-oxa-8-azabicyclo[3.2.1]oct-8-yl)-1,3,5-triazin-2-yl]phenyl}urea] | 26.5 | 2 | – | – | 0.57 nM | 3 | 13 | – | – | – | – | – |
| CCc1nc(-c2ccc(NC(=O)Nc3ccc(C(=O)N4CCC(c5ccccc5)CC4)cc3)cc2)nc(N2CCOCC2)n1 [Example 320, 1-[4-(4-ethyl-6-morpholin-4-yl-1,3,5-triazin-2-yl)phenyl]-3-{4-[(4-phenylpiperidin-1-yl)carbonyl]phenyl}urea] | 25 | 3.3 | 32.3 | 73.7 | 12.9 nM | – | – | – | – | – | – | – |
| CN(C)CCN(C)C(=O)c1ccc(NC(=O)Nc2ccc(-c3nc(N4CCOCC4)nc(N4CCN(C(=O)N(C)C)CC4)n3)cc2)cc1 [Example 648, 4-[4-(4-{[(4-{[2-(dimethylamino)ethyl](methyl)carbamoyl}phenyl)carbamoyl]amino}phenyl)-6-morpholin-4-yl-1,3,5-triazin-2-yl]-N,N-dimethylpiperazine-1-carboxamide] | 27 | 2 | – | – | 3 nM | – | 34 | – | – | – | 12 | – |
| COCCNC(=O)c1ccc(NC(=O)Nc2ccc(-c3nc(-c4ccc(C)cc4)nc(N4CCOCC4)n3)cc2)cc1 [Example 550, N-(2-methoxyethyl)-4-[({4-[4-(4-methylphenyl)-6-morpholin-4-yl-1,3,5-triazin-2-yl]phenyl}carbamoyl)amino]benzamide] | 374 | 47 | – | – | 12.4 nM | – | 711 | – | – | – | 315 | – |
| N#Cc1ccc(NC(=O)Nc2ccc(-c3nc(N4CCOCC4)nc(N4CCC5(CC4)OCCO5)n3)cc2)cc1 [Example 134, 1-(4-cyanophenyl)-3-{4-[4-(1,4-dioxa-8-azaspiro[4.5]dec-8-yl)-6-morpholin-4-yl-1,3,5-triazin-2-yl]phenyl}urea] | 183 | 20 | 805 | 857 | 24.5 nM | – | 857 | – | – | – | – | 182 |
| COc1ccc(NC(=O)Nc2ccc(-c3nc(N4CCOCC4)nc(N4CCOCC4)n3)cc2)cc1 [Example 9, 1-[4-(4,6-dimorpholin-4-yl-1,3,5-triazin-2-yl)phenyl]-3-(4-methoxyphenyl)urea] | 65 | 10 | 102 | 161 | 4 nM | – | – | – | – | – | – | – |
